In US20090318456A1, “SUBSTITUTED PTERIDINES FOR THE TREATMENT AND PREVENTION OF VIRAL INFECTIONS” (Gilead Sciences, Inc., priority 2006, published 2009):
Where two headings read alike, the source gives them in different places.

Experiments:
Huh-7 HCV replicon cells = experiment: CC50 assay (CellTiter-Glo) in Huh-7 HCV replicon cells; type: cell-based, human
Protocol: (§1) The anti HCV activity of specifically 2,4,6-trisubstituted pteridine derivatives was tested in a human hepatoma Huh-7 cell line harbouring a HCV replicon. The assay comprised the following steps:
(§2) Step 1: compound preparation and serial dilution involved the following alternatives, depending upon the water solubility of pteridine derivative being tested: • 1. with respect to water soluble 2,4,6-trisubstituted pteridine derivatives, 500 μL of solution in cell media (DMEM, 10% FBS, P/S, L-Glutamine) was prepared with a concentration that is twice the concentration of the starting final serial dilution concentration. 150 μL of the solution was added to the pre-specified wells in column 1 of a 96-well cell culture plate (PerkinElmer, white plate, cat. #6005181, for EC50 assay; black plate, cat. #6005182 for CC50 assay). The rest of the plate, i.e. columns 2-12, was filled with 100 μL of cell media. The plate was then placed on a Precision 2000 Workstation in order to start serial dilution. Pteridine compounds were diluted three times each step from column 1 to column 10. Column 11 was used as a blank control (no pteridine compound added). • 2. With respect to poorly water soluble pteridine derivatives, DMSO was used as a solvent, and serial dilution was performed in 50% DMSO in water, in a 384-well plate. A solution containing the relevant compound at 100-fold the concentration of the starting final serial dilution concentration was prepared in 50% DMSO in water and added to the pre-specified wells in column 1 of a polypropylene 384-well plate. This plate was then placed on a Precision 2000 Workstation in order to start serial dilution. After serial dilution, 2 μL of the solution was transferred from the 384-well plate to a 96-well cell culture plate containing 100 μL of cell media on a Biomek FX Workstation. The DMSO concentration in the final assay condition was 0.5% after cells have been added to the plate and the total volume in each well was brought to 200 μL. Step 2: to each well of the serial dilution plate prepared in step 1, 100 μL of cell media containing 6000 suspended Huh-7 HCV replicon cells was added with a Multidrop workstation. Plates were incubated for 3 days at 37° C. with 5% CO2. Step 3: detection: • 1) with respect to the EC50 assay, the media in a 96-well cell culture plate was aspirated with a Biotek EL405 plate-washer. A volume of 200 μL of a solution containing a 1:1 mixture of a cell-lysis buffer (commercially available from Promega, Luciferase Cell Culture Lysis 5× Reagent, cat. #E1531) and a luciferase substrate solution (commercially available from Promega, Luciferase Assay, cat. # E4550) was added to each well of the plate with Multidrop. The plate was incubated for 30 minutes at room temperature before the luminescence signal was measured with a TopCount plate-reader. • 2) with respect to the CC50 assay, 100 μL of a pre-mixed CellTiter-Glo (commercially available from Promega, cat. # G7572) solution was added directly to the cell culture in each well of the plate and the luminescence signal was measured with a TopCount plate-reader after 10 minutes of incubation at room temperature.
(§3) Results are expressed by the following data: • the 50% effective concentration (EC50), i.e. the concentration that protects 50% of the cell monolayer from virus-induced cythopathic effect, and • the 50% cytostatic concentration (CC50), i.e. the concentration that results in 50% inhibition of cell growth.

HCV replicon = experiment: Anti-HCV replicon assay (EC50, luciferase); type: cell-based, Hepatitis C virus (HCV); details: Huh-7 HCV replicon cells, 3 days, luciferase, read-out: EC50
Protocol: as §1, §2, §3

| SMILES | CC50 (Huh-7 HCV replicon cells; Table 1, 3 days) | EC50 (HCV replicon; Table 1) | CC50 (Huh-7 HCV replicon cells; Table 3, 3 days) | EC50 (HCV replicon; Table 3) |
| --- | --- | --- | --- | --- |
| COc1ccc(-c2cnc3nc(N)nc(N4CCN(C(=O)Cc5ccc(Cl)cc5)CC4)c3n2)cc1OC [Example 36] | < 10 µM | < 0.3 µM |  |  |
| COc1ccc(-c2cnc3nc(N)nc(N4CCN(C(=O)Cc5cccs5)CC4)c3n2)cc1OC [Example 27] | < 10 µM | < 0.3 µM |  |  |
| COc1ccc(-c2cnc3nc(N)nc(N4CCN(CC5OCCO5)CC4)c3n2)cc1OC [Example 109] | > 20 µM | 0.3 to 1 µM |  |  |
| COc1ccc(-c2cnc3nc(NCc4cccs4)nc(N)c3n2)cc1OC [Example 12] | 10 to 20 µM | 0.3 to 1 µM |  |  |
| COc1ccc(-c2cnc3nc(N)nc(N4CCN(S(=O)(=O)c5ccccc5)CC4)c3n2)cc1OC [Example 26] | 10 to 20 µM | < 0.3 µM |  |  |
| COc1ccc(-c2cnc3nc(N)nc(N4CCN(CC(=O)N5CCOCC5)CC4)c3n2)cc1OC [Example 83] | > 20 µM | 0.3 to 1 µM |  |  |
| COc1ccc(-c2cnc3nc(N)nc(N4CCN(C(=O)Nc5cccc(C(F)(F)F)c5)CC4)c3n2)cc1OC [Example 123, 2-amino-4-(N-3-trifluoromethyl-phenyl-carbamoyl-piperazin-1-yl)-6-(3,4-dimethoxyphenyl)pteridine] | < 10 µM | < 0.3 µM |  |  |
| COc1ccc(-c2cnc3nc(N)nc(N4CCN(C(=O)Nc5ccc(F)cc5)CC4)c3n2)cc1OC [Example 88] | < 10 µM | < 0.3 µM |  |  |
| COc1ccc(-c2cnc3nc(N)nc(N4CCN(C(=O)OCc5ccccc5)CC4)c3n2)cc1OC [Example 43] | < 10 µM | < 0.3 µM |  |  |
| CCOCCN1CCN(c2nc(N)nc3ncc(-c4ccc(OC)c(OC)c4)nc23)CC1 [Example 104] | > 20 µM | < 0.3 µM |  |  |
| COc1ccc(-c2cnc3nc(N)nc(N4CCN(C(=O)NCc5ccc(F)cc5)CC4)c3n2)cc1OC [Example 112] | < 10 µM | < 0.3 µM |  |  |
| COc1ccc(-c2cnc3nc(N)nc(N4CCN(CCOc5ccccc5)CC4)c3n2)cc1OC [Example 2] | > 20 µM | < 0.3 µM |  |  |
| COCC(=O)N1CCN(c2nc(N)nc3ncc(-c4ccc(OC)c(OC)c4)nc23)CC1 [Example 32] | > 20 µM | < 0.3 µM |  |  |
| COc1ccc(-c2cnc3nc(N)nc(N4CCN(CC(=O)N(C)c5ccccc5)CC4)c3n2)cc1OC [Example 85] | < 10 µM | < 0.3 µM |  |  |
| COc1ccc(-c2cnc3nc(N)nc(N4CCN(C(=O)c5cc(F)c(Cl)nc5Cl)CC4)c3n2)cc1OC [Example 31] | < 10 µM | < 0.3 µM |  |  |
| COCCN1CCN(c2nc(N)nc3ncc(-c4ccc(OC)c(OC)c4)nc23)CC1 [Example 55] | > 20 µM | 0.3 to 1 µM |  |  |
| COc1ccc(-c2cnc3nc(N)nc(N4CCN(C(=O)NCc5ccccc5)CC4)c3n2)cc1OC [Example 111] | 10 to 20 µM | < 0.3 µM |  |  |
| CCCCc1ccc(C(=O)N2CCN(c3nc(N)nc4ncc(-c5ccc(OC)c(OC)c5)nc34)CC2)cc1 [Example 54] | < 10 µM | < 0.3 µM |  |  |
| COc1ccc(-c2cnc3nc(N)nc(N4CCN(C(=O)Oc5ccc(Cl)cc5)CC4)c3n2)cc1OC [Example 63] | < 10 µM | < 0.3 µM |  |  |
| COc1ccc(-c2cnc3nc(N)nc(N4CCN(Cc5ccccc5F)CC4)c3n2)cc1OC [Example 53] | < 10 µM | < 0.3 µM |  |  |
| COc1ccc(-c2cnc3nc(N)nc(N4CCN(C(=O)COc5ccccc5)CC4)c3n2)cc1OC [Example 1] | > 20 µM | < 0.3 µM |  |  |
| COc1ccc(-c2cnc3nc(N)nc(N4CCN(C(=O)/C=C/c5ccccc5)CC4)c3n2)cc1OC [Example 28] | < 10 µM | < 0.3 µM |  |  |
| COc1ccc(-c2cnc3nc(N)nc(N4CCN(C(=O)Nc5ccc(C#N)cc5)CC4)c3n2)cc1OC [Example 89] | > 20 µM | < 0.3 µM |  |  |
| CCCCCOc1ccc(C(=O)N2CCN(c3nc(N)nc4ncc(-c5ccc(OC)c(OC)c5)nc34)CC2)cc1 [Example 24] | < 10 µM | < 0.3 µM |  |  |

| SMILES | CC50 (Huh-7 HCV replicon cells; Table 1, 3 days) | EC50 (HCV replicon; Table 1) | CC50 (Huh-7 HCV replicon cells; Table 3, 3 days) | EC50 (HCV replicon; Table 3) |
| --- | --- | --- | --- | --- |
| CCN(CC)C(=O)N1CCN(c2nc(N)nc3ncc(-c4ccc(OC)c(OC)c4)nc23)CC1 [Example 20] | > 20 µM | < 0.3 µM |  |  |
| CCOC(=O)CN1CCN(c2nc(N)nc3ncc(-c4ccc(OC)c(OC)c4)nc23)CC1 [Example 98] | 10 to 20 µM | < 0.3 µM |  |  |
| COc1ccc(-c2cnc3nc(N)nc(N4CCN(CC(=O)N5CCCC5)CC4)c3n2)cc1OC [Example 84] | > 20 µM | < 0.3 µM |  |  |
| CCCCCC(=O)N1CCN(c2nc(N)nc3ncc(-c4ccc(OC)c(OC)c4)nc23)CC1 [Example 16] | 10 to 20 µM | < 0.3 µM |  |  |
| COc1ccc(-c2cnc3nc(N)nc(N4CCN(C(=O)Nc5ccc(Br)cc5)CC4)c3n2)cc1OC [Example 124, 2-amino-4-(N-4-bromo-phenyl-carbamoyl-piperazin-1-yl)-6-(3,4-dimethoxyphenyl)pteridine] | < 10 µM | < 0.3 µM |  |  |
| COc1ccc(N2CCN(c3nc(N)nc4ncc(-c5ccc(OC)c(OC)c5)nc34)CC2)cc1 [Example 95] | > 20 µM | 0.3 to 1 µM |  |  |
| COCCOC(=O)N1CCN(c2nc(N)nc3ncc(-c4ccc(OC)c(OC)c4)nc23)CC1 [Example 65] | 10 to 20 µM | < 0.3 µM |  |  |
| COc1ccc(-c2cnc3nc(N)nc(N4CCN(CCc5ccccc5)CC4)c3n2)cc1OC [Example 86] | 10 to 20 µM | < 0.3 µM |  |  |
| COc1ccc(-c2cnc3nc(N)nc(N4CCN(C(=O)Nc5ccccc5)CC4)c3n2)cc1OC [Example 87] | < 10 µM | < 0.3 µM |  |  |
| COc1ccc(-c2cnc3nc(N)nc(N4CCN(C(=O)N(C)c5ccccc5)CC4)c3n2)cc1OC [Example 119] | < 10 µM | < 0.3 µM |  |  |
| COc1ccc(-c2cnc3nc(N)nc(N4CCN(C(=O)Oc5ccc(C)cc5)CC4)c3n2)cc1OC [Example 59] | < 10 µM | < 0.3 µM |  |  |
| Nc1ccc(-c2cnc3nc(N)nc(N4CCOCC4)c3n2)cc1 [Example 231] |  |  | > 20 µM | 0.3 to 1 µM |
| COc1ccc(-c2cnc3nc(N)nc(N4CCN(CCC#N)CC4)c3n2)cc1OC [Example 100] | 10 to 20 µM | < 0.3 µM |  |  |
| COc1ccc(-c2cnc3nc(N)nc(N4CCN(C(C)c5ccccc5)CC4)c3n2)cc1OC (stereo not drawn) [Example 73] | < 10 µM | < 0.3 µM |  |  |
| CCN(C(=O)N1CCN(c2nc(N)nc3ncc(-c4ccc(OC)c(OC)c4)nc23)CC1)c1ccccc1 [Example 121] | < 10 µM | < 0.3 µM |  |  |
| COc1ccc(-c2cnc3nc(N)nc(N4CCN(Cc5ccncc5)CC4)c3n2)cc1OC [Example 81] | 10 to 20 µM | 0.3 to 1 µM |  |  |
| COc1ccc(-c2cnc3nc(N)nc(N4CCN(Cc5cccc(C)c5)CC4)c3n2)cc1OC [Example 49] | 10 to 20 µM | < 0.3 µM |  |  |
| COc1ccc(-c2cnc3nc(N)nc(N4CCN(Cc5ccc(C)cc5)CC4)c3n2)cc1OC [Example 52] | > 20 µM | 0.3 to 1 µM |  |  |
| COc1ccc(-c2cnc3nc(N)nc(N4CCN(C(=O)Nc5cccs5)CC4)c3n2)cc1OC [Example 114] | < 10 µM | < 0.3 µM |  |  |
| COc1ccc(-c2cnc3nc(N)nc(N4CCN(C(=O)Nc5cccc(Cl)c5)CC4)c3n2)cc1OC [Example 122, 2-amino-4-(N-3-chloro-phenyl-carbamoyl-piperazin-1-yl)-6-(3,4-dimethoxyphenyl)pteridine] | < 10 µM | < 0.3 µM |  |  |
| COc1ccc(-c2cnc3nc(N)nc(N4CCN(Cc5cccnc5)CC4)c3n2)cc1OC [Example 80] | 10 to 20 µM | < 0.3 µM |  |  |
| COc1ccc(-c2cnc3nc(N)nc(N4CCN(C(=O)c5cccs5)CC4)c3n2)cc1OC [Example 19] | 10 to 20 µM | < 0.3 µM |  |  |
| COc1ccc(-c2cnc3nc(N)nc(N4CCN(C(=O)Nc5cccc(C)c5)CC4)c3n2)cc1OC [Example 3] | < 10 µM | < 0.3 µM |  |  |
| CCCCNC(=O)N1CCN(c2nc(N)nc3ncc(-c4ccc(OC)c(OC)c4)nc23)CC1 [Example 118] | < 10 µM | < 0.3 µM |  |  |
